Test results taken from US8703483B2, “Reagents and methods for using human embryonic stem cells to evaluate toxicity of pharmaceutical compounds and other chemicals” (Wisconsin Alumni Research Foundation, priority 2006, dated 2014).

Test system: human embryonic stem cells
Assay: Metabolite profiling (LC/ESI-TOF mass spectrometry) of extracellular media of hESCs treated with alcohol
Assay type: cell-based
Settings: ETOH 0.3
From the text: Binned masses were annotated in silico by querying the neutral masses in several different databases. These databases included Metlin, Biological Magnetic Resonance Data Bank (BMRB), NIST Chemistry WebBook, and the Human Metabolome Database. A mass was considered identified when its neutral mass was within 10 ppm of a known compound annotated in one of the databases listed above.

CCO [ETOH]
Fold: Unknown, mass 268.2487, RT 42.3656 (4 D): −1.517 fold
Fold: Unknown, mass 284.9798, RT 5.69776 (4 D): −1.2223 fold
Fold: Unknown, mass 286.1519, RT 14.88092 (4 D): −1.862 fold
Fold: Unknown, mass 293.1952, RT 66.86661 (4 D): −2.154 fold
Fold: Unknown, mass 293.9773, RT 4.014175 (4 D): −2.267 fold
Fold: Unknown, mass 294.1535, RT 20.67831 (4 D): −1.422 fold
Fold: Unknown, mass 295.1521, RT 8.967061 (4 D): 1.467 fold
Fold: Unknown, mass 301.1345, RT 7.719471 (4 D): 2.678 fold
Fold: Unknown, mass 315.6732, RT 26.51229 (4 D): −2.865 fold
Fold: Unknown, mass 322.1166, RT 23.90107 (4 D): −2.4215 fold
Fold: Unknown, mass 332.1367, RT 20.72194 (4 D): −2.077 fold
Fold: Unknown, mass 340.9252, RT 5.033976 (4 D): 2.625 fold
Fold: Unknown, mass 353.2765, RT 3.85935 (4 D): 4.904 fold
Fold: Unknown, mass 365.1606, RT 20.16372 (4 D): −1.925 fold
Fold: Unknown, mass 375.1886, RT 26.07722 (4 D): −4.751 fold
Fold: Unknown, mass 375.1898, RT 11.47109 (4 D): 2.132 fold
Fold: Unknown, mass 383.1721, RT 15.20829 (4 D): 3.377 fold
Fold: Unknown, mass 387.0812, RT 19.97914 (4 D): −1.699 fold
Fold: Unknown, mass 388.2349, RT 46.346 (4 D): −1.532 fold
Fold: Unknown, mass 393.1886, RT 19.69092 (4 D): −2.059 fold
Fold: Unknown, mass 396.1687, RT 6.259963 (4 D): 2.422 fold
Fold: Unknown, mass 403.1984, RT 17.27421 (4 D): −2.303 fold
Fold: Unknown, mass 417.2338, RT 33.09057 (4 D): −1.78 fold
Fold: Unknown, mass 417.2386, RT 21.14975 (4 D): −1.573 fold
Fold: Unknown, mass 420.0513, RT 13.35295 (4 D): −1.902 fold
Fold: Unknown, mass 421.2201, RT 27.46219 (4 D): −2.273 fold
Fold: Unknown, mass 429.2533, RT 18.03482 (4 D): −2.201 fold
Fold: Unknown, mass 443.2339, RT 30.87201 (4 D): 2.171 fold
Fold: Unknown, mass 443.3216, RT 67.0705 (4 D): 1.688 fold
Fold, Unknown metabolite, Mass 994.0917 (4 D, retention time 3.646902): 1.605
Fold, Unknown metabolite, Mass 980.075 (4 D, retention time 3.680188): 1.481
Fold, Unknown metabolite, Mass 1008.072 (4 D, retention time 3.705141): 1.416
Fold, Unknown metabolite, Mass 820.8181 (4 D, retention time 4.613879): −1.571
Fold, Unknown metabolite, Mass 611.8727 (4 D, retention time 4.936704): 2.01
Fold, Unknown metabolite, Mass 1038.786 (4 D, retention time 5.177162): 1.588
Fold, Unknown metabolite, Mass 921.0025 (4 D, retention time 5.399211): 1.945
Fold, Unknown metabolite, Mass 555.8505 (4 D, retention time 5.742094): −1.3396
Fold, Unknown metabolite, Mass 1040.323 (4 D, retention time 5.8905): −1.479
Fold, Unknown metabolite, Mass 509.6704 (4 D, retention time 5.891069): 1.468
Fold, metabolite Ethanesulfonic acid, Mass 579.2519 (4 D, retention time 5.903169): −2.112
Fold, Unknown metabolite, Mass 646.7084 (4 D, retention time 5.903429): 2.946
Fold, Unknown metabolite, Mass 732.007 (4 D, retention time 5.918027): 1.761
Fold, Unknown metabolite, Mass 658.2544 (4 D, retention time 8.787827): −3.21
Fold, Unknown metabolite, Mass 502.2258 (4 D, retention time 13.78553): 1.866
Fold, Unknown metabolite, Mass 566.2265 (4 D, retention time 14.9927): 1.624
Fold, Unknown metabolite, Mass 555.2406 (4 D, retention time 15.78741): 2.471
Fold, Unknown metabolite, Mass 577.2825 (4 D, retention time 16.90923): −8.917
Fold, Unknown metabolite, Mass 505.2616 (4 D, retention time 18.36887): 2.009
Fold, Unknown metabolite, Mass 489.2127 (4 D, retention time 21.72729): 2.372
Fold, Unknown metabolite, Mass 462.2217 (4 D, retention time 22.95657): 1.936
Fold, metabolite L-Oleandrosyl-oleandolide, Mass 530.314 (4 D, retention time 23.87065): 2.212
Fold, Unknown metabolite, Mass 574.3397 (4 D, retention time 24.7039): 1.524
Fold, metabolite L-Urobilinogen, Mass 596.3543 (4 D, retention time 25.14927): 1.545
Fold, Unknown metabolite, Mass 661.3846 (4 D, retention time 26.7452): 1.547
Fold, Unknown metabolite, Mass 447.2509 (4 D, retention time 29.86415): −1.858
Fold, Unknown metabolite, Mass 478.2761 (4 D, retention time 30.28867): 1.51
Fold, metabolite glucuronide, Mass 471.1928 (4 D, retention time 30.37291): 2.726
Fold, Unknown metabolite, Mass 449.2653 (4 D, retention time 30.45343): −2.414
Fold, Unknown metabolite, Mass 471.7804 (4 D, retention time 30.72707): −3.441
Fold, Unknown metabolite, Mass 510.8202 (4 D, retention time 31.22083): 2.502
Fold, Unknown metabolite, Mass 559.8329 (4 D, retention time 31.97996): −2.566
Fold, Unknown metabolite, Mass 635.4065 (4 D, retention time 32.08734): 1.395
Fold, Unknown metabolite, Mass 531.2876 (4 D, retention time 32.50661): 2.361
Fold, Unknown metabolite, Mass 603.3535 (4 D, retention time 32.67372): −2.94
Fold, Unknown metabolite, Mass 460.9391 (4 D, retention time 33.51823): −3.602
Fold, Unknown metabolite, Mass 619.3409 (4 D, retention time 33.68866): 2.126
Fold, Unknown metabolite, Mass 796.9917 (4 D, retention time 34.60124): 1.689
Fold, Unknown metabolite, Mass 751.4193 (4 D, retention time 35.028): 1.845
Fold, Unknown metabolite, Mass 531.3191 (4 D, retention time 35.58454): −3.0409
Fold, metabolite Neu5Acalpha2-3Galbeta1-4Glcbeta-Sp, Mass 702.2497 (4 D, retention time 40.84822): −2.216
Fold, Unknown metabolite, Mass 518.3914 (4 D, retention time 46.57666): 2.289
Fold, Unknown metabolite, Mass 731.0954 (4 D, retention time 47.76987): −3.25
Fold, Unknown metabolite, Mass 576.096 (4 D, retention time 47.90467): 1.558
Fold, Unknown metabolite, Mass 444.2237 (4 D, retention time 51.58546): 2.03
Fold, Unknown metabolite, Mass 468.2002 (4 D, retention time 51.6158): 1.92
Fold, Unknown metabolite, Mass 526.2773 (4 D, retention time 51.73057): 2.715
Fold, Unknown metabolite, Mass 446.0431 (4 D, retention time 54.8719): 1.934
Fold, Unknown metabolite, Mass 531.3736 (4 D, retention time 66.31491): 2.874
Fold, Unknown metabolite, Mass 487.3472 (4 D, retention time 66.73744): 2.878
Fold, Unknown metabolite, Mass 528.3631 (4 D, retention time 71.36012): 2.361
Fold, Unknown metabolite, Mass 556.3971 (4 D, retention time 88.02533): −2.384
Fold: 1,3-Dimethyl-8-isoquinolinol, mass 173.084, RT 20.23014 (24 H): −1.44 fold
Fold: 3,4-Dihydroxybutyric acid, mass 129.0452, RT 16.73904 (24 H): 1.796 fold
Fold: 3-Methoxytyramine / Phenylephrine, mass 167.0941, RT 23.6763 (24 H): −2.83 fold
